According to ChEMBL document CHEMBL3351623, “Pim kinase inhibitors for the treatment of cancer and possibly more” (ACS Med Chem Lett, 2014):

Assays:
Assay type in all cases: functional, cell-based
[1] = tested on: BaF3; assay: Antiproliferative activity against PIM1-dependent mouse BAF3 cells
[2] = Antiproliferative activity against human MM1S cells; details: MM1.S
[3] = tested on: BaF3; assay: Antiproliferative activity against IL3-dependent mouse BAF3 cells

Row | Compound | IC50 [1] | EC50 [2] | IC50 [3]
1 | Cn1ncc(NC(=O)c2nc(-c3c(F)cccc3F)sc2N)c1[C@]12CC[C@H](O1)[C@@H](N)CC2 | 0.0192 µM |  | 
2 | C[C@H]1O[C@@H](c2c(NC(=O)c3csc(-c4c(F)cccc4F)n3)cnn2C)C[C@@H](N)[C@]1(C)O (single isomer, unassigned) | 0.0968 µM | 6.9 µM | > 25 µM
3 | Cn1ncc(NC(=O)c2csc(-c3c(F)cc([C@H]4CCCO4)cc3F)n2)c1[C@@H]1CC[C@@H](N)[C@H](F)CO1 (single isomer, unassigned) | 0.0372 µM | 1.7 µM | 12.2 µM
